Entries after “also recorded” stand apart in the source; their conditions may differ.
Assays:
Type in all cases: cell-based, human
[1] = system: TLR4; assay: ELISA/Bioplex of LPS-mediated cytokine secretion by THP-1 cells; settings: for LPS-mediated secretion of IL-18, IL-6, IL-8 and TNF (27-plex Bioplex): 10 μM
Description: (A) Results of LDH assay and ELISAs analysing cytokine secretion after 5 h of stimulation with LPS (graphs show mean values for at least 3 biological replicates). […] In the tables average values are presented based on 3-5 biological replicates for each experiment. […]
TNF in supernatants was detected using a human TNF-alpha DuoSet ELISA (DY210) (R&D Systems); CXCL10 using a DuoSet ELISA (DY266) (R&D Systems); IL-1β using a BD OptEiA human IL-1β ELISA SetII (#557953, BD Biosciences): IFNβ using a VeriKine-HS™ Human Interferon-Beta Serum ELISA Kit (#41415) from PBL Assay Science. Some supernatants were also analysed by multiplex cytokine assay (Bio-Plex; Bio-Rad Laboratories Inc.) for IL-1β, IL-6, IL-8, CXCL10/IP-10. Results are presented as mean and SD for biological replicates for a representative donor (primary human macrophages), or at least three independent experiments for the model cell line THP-1. Statistical significance was evaluated in GraphPad Prizm 5.03. Data distribution was assumed to be normal but this was not formally tested. The difference between the two groups was determined by two-tailed t test.

[2] = system: TLR4; assay: qPCR of LPS-mediated cytokine mRNA expression in THP-1 macrophages; settings: for IFNβ and CXCL10 mRNA expression: 30 min pre-treatment, LPS
Description: SW480 (ATCC CCL-228) and Jurkat (ATCC Clone E6-1; TIB-152) cells were cultured in RPMI 1640 (Sigma-Aldrich, Schnelldorf, Germany) supplemented with 10% heat-inactivated FCS, penicillin/streptomycin (Life Technologies) and 20 mM L-Glutamine. THP-1 cells (ATCC TIB-202) were cultured in RPMI-1640 (high-glucose, ATCC) supplemented with 10% heat inactivated foetal calf serum (FCS), 100 nM penicillin/streptomycin and 5 μM β-mercaptoethanol (Sigma). THP-1 cells were differentiated with 60 ng/ml phorbol 12-myristate 13-acetate (PMA, Sigma) for 72 h, followed by 24 or 48 h in medium without PMA.
Total RNA was isolated from the cells using Qiazol reagent #79306 from QIAGEN, and chloroform extraction followed by purification on RNeasy Mini columns with DNAse digestion (Qiagen). cDNA was prepared using the Maxima First Strand cDNA Synthesis Kit for quantitative real-time polymerase chain reaction (RT-qPCR) (Thermo Fisher Scientific) according to the manufacturer's protocol. qPCR was performed using the PerfeCTa qPCR FastMix (Quanta Biosciences) in replicates and cycled in a StepOnePlus™ Real-Time PCR cycler. The following TaqMan® Gene Expression Assays (Applied Biosystems®) were used: IFNβ (Hs01077958_s1), TNF (Hs00174128_m1), TBP (Hs00427620_m1), CXCL10 (Hs01124251_g1), IL-6 (Hs00174131_m1) and IL-1β (Hs01555410_m1), for human cells; Ifnβ (Mm00439552_s1), Tnf (Mm00443258_m1), Tbp (Mm01277042_m1) and II-1β (Mm00434228_m1), for mouse cells. No RT controls were negative. The level of TBP mRNA was used for normalisation and results presented as relative expression compared to the control untreated sample. Relative expression was calculated using Pfaffl's mathematical model (Pfaffl, Nucleic Acids Research 29(9): e45, 2001). Results are presented as the mean and SD expression fold change for biological replicates relative to non-stimulated cells. Statistical significance was evaluated in GraphPad Prizm 5.03. Data distribution was assumed to be normal but this was not formally tested. The difference between the two groups was determined by two-tailed t test.

[3] = system: TLR8; assay: Whole blood assay, CL075 stimulation
Excerpt: […] Results are for at least 6 donors. The Wilcoxon matched-pairs signed rank test was used for statistical analysis between 2 groups in Prizm 8.2.1. In each graph, circles indicate whole blood pre-treated with water, squares indicate blood pre-treated with control peptide (average for treatment with Pen and C3-Pen), and triangles indicate pre-treatment with P7-Pen.
To evaluate the effect of peptides in an ex vivo system, a human whole blood model was used. Peripheral venous blood was drawn from 6 healthy donors into sterile polypropylene tubes (Thermo Scientific™ Nunc™ Biobanking and Cell Culture Cryogenic Tubes) containing the anti-coagulant Lepirudin (Refludan®; Celgene). Peptide solutions were made by diluting peptide stocks in DPBS (Dulbecco's Phosphate Buffered Saline with MgCl2 and CaCl2; Sigma-Aldrich) to obtain a final concentration of 140 μM. Peptide solution or DPBS was distributed in equal volume (50 μL) to 1.8 mL sterile polypropylene tubes (Thermo Scientific™Nunc™ Biobanking and Cell Culture Cryogenic Tubes). 250 μL whole blood was then added to the 1.8 mL tubes containing peptide solution or DPBS, and incubated at 37° C. under constant rotation for 1 h (concentration of peptides for pre-incubation: 23.3 μM). Stimulation solutions were made by diluting K12 LPS or CL075 in DPBS to obtain a final concentration in whole blood of 100 ng/mL (LPS) or 1 μg/mL (CL075) after addition of 50 μL stimulation solution or DPBS. Concentration of peptides in whole blood samples was reduced by this to 20 μM. Tubes were incubated at 37° C. under constant rotation for 4 h. Finally, plasma was isolated from the whole blood specimens by centrifugation, collected in 96 well plates (Corning® 96 Well CellBIND® Microplates), and stored at −20/−80° C. until analysis by multiplex/27-plex cytokine assay or IFNβ ELISA (VeriKine-HS Human Interferon Beta Serum ELISA Kit; pbl Assay Science).

Row | Substance | inhibitory activity towards LPS-induced CXCL10, TNF and IL-1β secretion (ELISA) ([1]; 15 μM, 30 min pre-treatment, LPS 100 ng/ml 5 h, relative to P7-Pen) | IFNβ and CXCL10 mRNA expression ([2]; 10 μM) | inhibition of CXCL10 secretion ([1]; 10 μM applied 30 min before or simultaneously with LPS, LPS 6 h) | inhibitory effect on CXCL10 secretion ([1]; 10 μM applied 1 h after addition of LPS) | LPS-mediated secretion of IL-18, IL-6, IL-8 and TNF (27-plex Bioplex) ([1]; 30 min pre-treatment) | TLR8-mediated pro-inflammatory cytokine secretion ([3]; 20 μM, CL075) | TLR8-mediated IFNβ release/secretion by whole blood cells ([3]; 20 μM, CL075 1 μg/ml 4 h) | LPS-mediated IFNβ, CXCL10 and TNF expression ([2]; 10 μM, 1 h pre-treatment, LPS 100 ng/ml) | expression of IFNβ, CXCL10 and TNF mRNA ([2]; 20 μM, 1 h pre-treatment, LPS 100 ng/ml) | LPS-induced cytokine expression levels (IFNβ, TNF and CXCL10 mRNA) ([2]; peptide removed from media after pre-treatment, before LPS stimulation (data not shown)) | LPS-mediated TNF secretion (ELISA) ([1]; not shown) | CL075-mediated IFNβ secretion by whole blood cells ([3]; pilot assay, 10 μM, CL075 1 μg/ml)
1 | Ac-ITVAASVTLTGRQIKIWFQNRRMKWKK-NH2 [Peptide P7-A4-Pen] | least effect on peptide activity |  |  |  |  |  |  |  |  |  |  | 
2 | Ac-ITVYASVTLTGRQIKIWFQNRRMKWKK-NH2 [Peptide P7-Pen] |  | reduced | very effective | reduced | inhibitory effect | no significant effect | effectively abrogated; also recorded: inhibited |  |  |  |  | 
3 | Ac-ITVYASVTLTGRRRRRRRRRRR-NH2 [Peptide P7-Arg11] |  | reduced |  |  | inhibitory effect |  |  | clear inhibitory effect | totally inhibited | No changes | prevented TNF secretion | inhibited

— patent publication US20230220047A1, “PEPTIDES FOR TREATMENT OF SEPSIS AND CANCER” (NORWEGIAN UNIVERSITY OF SCIENCE AND TECHNOLOGY (NTNU), priority 2020, published 2023)
